Reference: article PMC6332220, “Synthesis, Characterization and Biological Evaluation of Some Quinoxaline Derivatives: A Promising and Potent New Class of Antitumor and Antimicrobial Agents” (Molecules, 2015)
≈ marks a conversion by molar mass, not a printed value.

Assays:
[1] = system: WI 38 (normal fibroblast cells); assay: In vitro cytotoxicity, SRB cell growth assay, normal cells WI 38; format: cell-based, human; settings: 48 h exposure, non-cytotoxic = IC50 >100 μg/mL; for IC50: Homo sapiens, WI-38, 48 h
Method: The in vitro cytotoxic activity of the newly synthesized compounds against human breast cell line (MCF7), non-small cell lung cancer NCIH460, CNS cancer SF-268 and WI 38 (normal fibroblast cells) were evaluated using doxorubicin as the reference drug according to the method reported by Skehan et al..
The newly synthesized compounds were evaluated in vitro against three human cancer cell lines; which are MCF-7 (breast adenocarcinoma), NCI-H460 (non-small cell lung cancer) and SF-268 (CNS cancer), and WI 38 (normal fibroblast cells) were used in this study. MCF-7 was obtained from the European Collection of Cell Cultures (ECACC, Salisbury, UK) but NCI-H460, SF-268 and WI 38 were kindly provided by the National Cancer Institute (NCI, Cairo, Egypt). They grow as monolayer and routinely maintained RPMI-1640 medium supplemented with 5% heat inactivated fetal bovine serum (FBS), 2 mM glutamine and antibiotics (penicillin 100 U/mL, streptomycin 100 µg/mL), at 37 °C in a humidified atmosphere containing 5% CO2. Exponentially growing cells were obtained by plating 1.5 × 10^5 cells/mL for MCF-7 and SF-268, and 0.75 × 10^4 cells/mL for NCI-H460 followed by 24 h of incubation. The effect of the vehicle solvent (DMSO) on the growth of these cell lines was evaluated in all experiments by exposing untreated control cells to the maximum concentration (0.5%) of DMSO used in each assay.
The effect of compounds on the in vitro growth of human tumor cell lines were evaluated according to the procedure adopted by the National Cancer Institute ([…]) in the “In vitro Anticancer Drug Discovery Screen” that uses the protein-binding dye sulforhodamine B (SRB) to assess cell growth. In the assay protocol, all cells were incubated at 37 °C under humidified atmosphere containing 5% CO2. Briefly, exponentially cells growing in 96-well plates were then exposed for 48 h to five serial concentrations of each compound, starting from a maximum concentration of 150 μg/mL. Following this exposure period adherent cells were fixed, washed and stained. The bound stain was solubilized and the absorbance was measured at 492 nm in a plate reader (Bio-Tek Instruments Inc., Power wave XS, Winston, NC, USA). For each test compound and cell line, a dose response curve was obtained and the inhibitory concentration of 50% (IC50), corresponding to the concentration of the compounds that inhibited 50% of the net cell growth was calculated as described elsewhere. Doxorubicin was used as a positive control and tested in the same manner.

Streptococcus faecalis = assay: MIC by broth dilution, Streptococcus faecalis; format: cell-based; settings: Enterococcus faecalis, Gram positive, 0.98-125 µg/mL, read-out: Minimum Inhibitory Concentration (MIC) (µg/mL) Streptococcus faecalis
Method: (§1) In this study, MIC (quantitative method) was used for evaluation of the antimicrobial activity of tested compounds. Screening was evaluated in vitro using the Broth dilution method according to CLSI [45]. All the bacteria were incubated and activated at 30 °C for 24 h inoculation into nutrient broth and the fungi were incubated in malt extract broth for 48 h. The compounds were dissolved in DMSO and then diluted using […] Mueller-Hinton broth. […] In each case triplicate tests were performed and the average was taken as the final reading. The tubes were then inoculated with the test organisms, grown in their suitable broth at 37 °C for 24 h for tested microorganisms (1 × 10^8 CFU/mL for bacteria and 1 × 10^6 CFU/mL of fungi), each 5 mL received 0.1 mL of the above inoculum and incubated at 37 °C for 24 h.

Staphylococcus aureus = assay: Disk diffusion, Staphylococcus aureus; format: cell-based; settings: Gram positive, 8.0 mm disks, 10 μL
Method: (§2) The disk diffusion method was used for determination of the antimicrobial activity using ampicillin, gentamicin and amphotericin B as reference drugs. The results were recorded for each compounds as the average diameter as inhibition zones (IZ) of bacterial or fungal growth around the discs in mm as shown in Table 2.
(§3) Antimicrobial activities were carried out against highly pathogenic strains; three strains of Gram positive bacteria (Bacillus subtilis, Staphylococcus aureus and Streptococcus faecalis), four strains of Gram negative bacteria (Escherichia coli, Neisseria gonorrhoeae, Pseudomonas aeruginosa and Salmonella typhimurium) and three fungi strains (Aspergillus flavus, Aspergillus fumigatus and Candida albicans) isolated from primary agar plates. Antimicrobial activity of the tested samples was determined using a modified Kriby-Bauer disk diffusion method. Briefly, 100 µL of the test bacteria/fungi were grown in 10 mL of fresh media until they reached a count approximately 10^8 cells/mL for bacteria or 10^5 cells/mL for fungi. 100 µL of microbial suspension was spread onto agar plates corresponding to the broth in which they were maintained. The inoculated plates of bacterial strains were incubated at 35–37 °C for 24–48 h, while the inoculated plates of fungal strains such as A. flavus and A. fumigatus were incubated at 25 °C for 48 h and yeast as C. albicans was incubated at 30 °C for 24–48 h.
(§4) The agar disk diffusion (qualitative) method was used in this investigation for determination of the preliminary antibacterial and antifungal activities. The agar used was Mueller-Hinton agar plates that are rigorously tested for composition and pH. Further the depth of the agar in the plate is a factor to be considered in the disk diffusion method.
(§5) Reference drugs: ampicillin was used as a standard antibacterial drug for Gram positive bacteria, gentamicin as a standard antibacterial drug for Gram negative bacteria and amphotericin B as antifungal standard drug.
(§6) Bacterial and fungal strains were spread onto the surface of the agar plates using sterile cotton swabs. For evaluation of antibacterial activities, blank paper disks (Schleicher & Schuell, Alicante, Spain) with a diameter of 8.0 mm were saturated with 10 μL of tested concentration of the stock solutions. Disks were dried and then placed onto inoculated agar plates. The plates of bacterial strains were reincubated at 35–37 °C for 24–48 h, while the plates of fungal strains such as A. flavus and A. fumigatus were reincubated at 25 °C for 48 h and yeast as C. albicans was reincubated at 30 °C for 24–48 h as mentioned above. […] For an accurate analysis, tests were run in triplicate for each strain to avoid any error as described in Table 2.

Salmonella typhimurium = assay: MIC by broth dilution, Salmonella typhimurium; format: cell-based; settings: Salmonella enterica, TYPHIMURIUM, Gram negative, 0.98-125 µg/mL, read-out: Minimum Inhibitory Concentration (MIC) (µg/mL) Salmonella typhimurium
Method: as §1

Bacillus subtilis = assay: Disk diffusion, Bacillus subtilis; format: cell-based; settings: Gram positive, 8.0 mm disks, 10 μL
Method: as §2, §3, §4, §5, §6

Escherichia coli = assay: MIC by broth dilution, Escherichia coli; format: cell-based; settings: Escherichia coli, Gram negative, 0.98-125 µg/mL, read-out: Minimum Inhibitory Concentration (MIC) (µg/mL) Escherichia coli
Method: as §1

Candida albicans = assay: Disk diffusion, Candida albicans; format: cell-based; settings: Fungi, 8.0 mm disks, 10 μL
Method: as §2, §3, §4, §5, §6
Disk diffusion method for filamentous fungi testing by using approved standard method (M02-A11) developed by the CLSI for evaluating the susceptibilities of filamentous fungi to antifungal agents. Disk diffusion method for yeasts developed by using approved standard method (M44-A2) by the CLSI [44]. Agar-based methods such as disk diffusion can be good alternatives because they are simpler and faster than broth-based methods.

Row | Structure (SMILES) | IC50 [1] [µg/mL] | MIC (Streptococcus faecalis) [µg/mL] | Inhibition Zone Diameter (IZ) (mm) Staphylococcus aureus (Staphylococcus aureus) [mm] | MIC (Salmonella typhimurium) [µg/mL] | Inhibition Zone Diameter (IZ) (mm) Bacillus subtilis (Bacillus subtilis) [mm] | MIC (Escherichia coli) [µg/mL] | Inhibition Zone Diameter (IZ) (mm) Candida albicans (Candida albicans) | IC50 (μg/mL) WI 38 [1] [µg/mL]
1 | NNc1nc2cc(Br)ccc2nc1Cl [Compound 3, 6-Bromo-2-chloro-3-hydrazinylquinoxaline] | 32.2 ± 6.54 (≈ 118 µM) | 15.6 (≈ 57.1 µM) | 14 | 1.95 (≈ 7.13 µM) | 15 | 3.9 (≈ 14.3 µM) | R (R (IZ = 0 mm)) | 
2 | Clc1nc2ccc(Br)cc2n2nnnc12 [Compound 4, 8-Bromo-4-chlorotetrazolo[1,5-a]quinoxaline] | > 100 | 0.98 (≈ 3.44 µM) | 26 | 0.98 (≈ 3.44 µM) | 20 | 3.9 (≈ 13.7 µM) | 20 mm | 
3 | Brc1ccc2nc(N3CCCCC3)c3nnnn3c2c1 [Compound 5a, 8-Bromo-4-(piperidin-1-yl)tetrazolo[1,5-a]quinoxaline] | > 100 | 62.5 (≈ 188 µM) | 11 | 31.2 (≈ 93.8 µM) | 13 | 125 (≈ 375 µM) | 12 mm | 
4 | Brc1ccc2nc(N3CCOCC3)c3nnnn3c2c1 [Compound 5b, 8-Bromo-4-(morpholin-4-yl)tetrazolo[1,5-a]quinoxaline] | > 100 | 3.9 (≈ 11.6 µM) | 17 | 1.95 (≈ 5.82 µM) | 17 | 1.95 (≈ 5.82 µM) | 9 mm | 
5 | NNc1nc2ccc(Br)cc2nc1NN [Compound 9, 6-Bromo-2,3-dihydrazinylquinoxaline] | 30.6 ± 6.21 (≈ 114 µM) | 0.98 (≈ 3.64 µM) | 27 | 0.98 (≈ 3.64 µM) | 28 | 1.95 (≈ 7.25 µM) | 11 mm | 
6 | Brc1ccc2c(c1)n1nnnc1c1nnnn21 [Compound 11, 9-Bromoditetrazolo[1,5-a:5′,1′-c]quinoxaline] | > 100 | 62.5 (≈ 215 µM) | 17 | 7.81 (≈ 26.8 µM) | 19 | 62.5 (≈ 215 µM) | R (R (IZ = 0 mm)) | 56.85 ± 4.05 (≈ 195 µM)
7 | Cc1cc(C)n(-c2nc3cc(Br)ccc3nc2NN)n1 [Compound 14, 6-Bromo-3-(3,5-dimethyl-1H-pyrazol-1-yl)-2-hydrazinyl quinoxaline] | 58.7 ± 8.65 (≈ 176 µM) | 1.95 (≈ 5.85 µM) | 12 | 1.95 (≈ 5.85 µM) | 12 | 3.9 (≈ 11.7 µM) | R (R (IZ = 0 mm)) | 
8 | NC1=NN(c2nc3ccc(Br)cc3nc2N2N=C(N)CC2=O)C(=O)C1 [Compound 16, 6-Bromo-2,3-bis(3-amino-1H-pyrazol-5(4H)-one)quinoxaline] | 30 ± 2.36 (≈ 74.5 µM) | 31.2 (≈ 77.5 µM) | 12 | 1.95 (≈ 4.84 µM) | 10 | 3.9 (≈ 9.67 µM) | R (R (IZ = 0 mm)) | 
